Assay results published in patent publication US4317768A, “Dihydropyridine derivatives as stabilizers for vinyl chloride polymers” (priority 1977, dated 1982).

Experiments:
[1] = Static thermostability (GARDNER method), rigid PVC sheets, 210° C., 0.3 part stabilizer; conditions: for coloration of the resins, in words: 0 to 3 minutes
Protocol: (§1) This study was carried out according to the GARDNER method, described in British Pat. No. 1,489,685.
(§2) The reference substance was 2-phenyl-indole, a well-known and widely used stabilizer.
(§3) The stabilizer (dihydropyridine or 2-phenyl-indole) and the other usual ingredients were mixed with powdered vinyl resins and the mixtures were calendered at a temperature of 160° C. to give rigid sheets.
(§4) The sheets were then heated in a thermostated oven (185° C. or 210° C.) for different intervals of time until incipient carbonization.
(§5) The coloration of the samples was compared to a standard scale of coloration, known as the GARDNER scale and was expressed in terms of the reference figures of the GARDNER scale.
(§6) This study was carried out with the following resin:
(§7) Polyvinyl chloride resin
(§8) SL 2016 is a solution of zinc-2-ethyl-hexanoate in a mixture of hydrocarbons boiling between 158° C. and 184° C.
The first trial was carried out at 210° C. with a resin containing 0.3 part by weight of stabilizer, the sheets being removed from the oven every three minutes over a period of 21 minutes.

[2] = Static thermostability (GARDNER method), rigid PVC sheets, 185° C., equimolecular quantities; conditions: 1.55×10^-3 mol
Protocol: as §1, §2, §3, §4, §5, §6, §7, §8
Finally, a trail was performed at 185° C., with resins containing equimolecular quantities of the dihydropyridines or of 2-phenyl-indole, namely 1.55×10^-3 mol. In this case too, the samples were removed from the oven every 6 minutes over a period of 24 minutes and then every 3 minutes until the 42nd minute (or until carbonization).

[3] = Static thermostability (GARDNER method), rigid PVC sheets, 185° C., 0.3 part stabilizer
Protocol: as §1, §2, §3, §4, §5, §6, §7, §8
A second trial was performed at a temperature of 185° C., with a resin containing 0.3 part of stabilizer, the samples being removed from the oven every 6 minutes over a period of 24 minutes, then every 3 minutes until the 42nd minute (or until carbonization).

| Structure (SMILES) | coloration, GARDNER scale ([1]; 0 min) | coloration, GARDNER scale ([1]; 3 min) | coloration, GARDNER scale ([1]; 6 min) | coloration, GARDNER scale ([1]; 9 min) | coloration, GARDNER scale ([1]; 12 min) | coloration, GARDNER scale ([1]; 15 min) | coloration, GARDNER scale ([1]; 18 min) | coloration, GARDNER scale ([1]; 21 min) | coloration, GARDNER scale ([2]; 0 min) | coloration, GARDNER scale ([2]; 6 min) | coloration, GARDNER scale ([2]; 12 min) | coloration, GARDNER scale ([2]; 18 min) | coloration, GARDNER scale ([2]; 24 min) | coloration, GARDNER scale ([2]; 27 min) | coloration, GARDNER scale ([2]; 30 min) | coloration, GARDNER scale ([3]; 0 min) | coloration, GARDNER scale ([3]; 6 min) | coloration, GARDNER scale ([3]; 12 min) | coloration, GARDNER scale ([3]; 18 min) | coloration, GARDNER scale ([3]; 24 min) | other results |
| --- | --- | --- | --- | --- | --- | --- | --- | --- | --- | --- | --- | --- | --- | --- | --- | --- | --- | --- | --- | --- | --- |
| CCCCCCCCCCCCCC1=C(C(=O)OC)CC(C(=O)OC)=C(CCCCCCCCCCCCC)N1 [Compound 20, 2,6-Ditridecyl-3,5-dicarbomethoxy-1,4-dihydropyridine] | 1 | 1 | 1.5 | 2 | 2 | 2.5 | 4 | 7 |  |  |  |  |  |  |  |  |  |  |  |  |  |
| COc1ccc(COC(=O)C2=C(C)NC(C)=C(C(=O)OCc3ccc(OC)cc3)C2)cc1 [Compound 4] | 1 | 1 | 2 | 4 | 6 | 11 | Burnt |  | 1 | 1 | 1 | 4 | 6 | 8 | 11 | 1 | 1 | 2 | 8 | 13 | coloration, GARDNER scale ([2]; 33 min): 15; coloration, GARDNER scale ([2]; 36 min): Burnt; coloration of the resins, in words [1]: considerably less; coloration, GARDNER scale ([3]; 27 min): 14; coloration, GARDNER scale ([3]; 30 min): 17; coloration, GARDNER scale ([3]; 33 min): 18; coloration, GARDNER scale ([3]; 36 min): Burnt |
| COC(=O)C1=C(c2ccccc2)NC(c2ccccc2)=C(C(=O)OC)C1 [Compound 18, 2,6-Diphenyl-3,5-dicarbomethoxy-1,4-dihydropyridine] | 1 | 1 | 2 | 2 | 2 | 3 | 6 | Burnt |  |  |  |  |  |  |  |  |  |  |  |  |  |
| CC1=C(C(=O)OCC=Cc2ccccc2)CC(C(=O)OCC=Cc2ccccc2)=C(C)N1 [Compound 22, 2,6-Dimethyl-3,5-dicarbocinnamyloxy-1,4-dihydropyridine] | 1 | 1 | 2 | 4 | 11 | Burnt |  |  |  |  |  |  |  |  |  |  |  |  |  |  |  |
| CC1=C(C(=O)OCc2ccccc2Cl)CC(C(=O)OCc2ccccc2Cl)=C(C)N1 [Compound 5, 2,6-Dimethyl-3,5-di-(2'-carbochloro-benzyloxy)-1,4-dihydropyridine] | 1 | 1 | 2 | 3 | 6 | 10.5 | Burnt |  | 1 | 1 | 1 | 5 | 10 | 11 | 13 | 1 | 1 | 2 | 9 | 11 | coloration, GARDNER scale ([2]; 33 min): 14; coloration, GARDNER scale ([2]; 36 min): 15; coloration, GARDNER scale ([2]; 39 min): Burnt; coloration of the resins, in words [1]: considerably less; coloration, GARDNER scale ([3]; 27 min): 11; coloration, GARDNER scale ([3]; 30 min): 13; coloration, GARDNER scale ([3]; 33 min): 14; coloration, GARDNER scale ([3]; 36 min): 14; coloration, GARDNER scale ([3]; 39 min): Burnt |
| COC(=O)C1=C(C)NC(C)=C(C(=O)OC)C1c1ccccc1 [Compound 23, 2,6-Dimethyl-3,5-dicarbomethoxy-4-phenyl-1,4-dihydropyridine] | 1 | 2 | 3 | 13 | 14 | 15 | Burnt |  |  |  |  |  |  |  |  |  |  |  |  |  |  |
| CCCCCCC1C(C(=O)OC)=C(C)NC(C)=C1C(=O)OC [Compound 8, 2,6-Dimethyl-3,5-dicarbomethoxy-4-hexyl-1,4-dihydropyridine] | 1 | 2 | 3 | 6 | 8 | 10.5 | 11 | Burnt |  |  |  |  |  |  |  |  |  |  |  |  |  |
| CC1=C(C(=O)OCc2ccccc2C)CC(C(=O)OCc2ccccc2C)=C(C)N1 [Compound 6, 2,6-Dimethyl-3,5-di-(2'-carbomethyl-benzyloxy)-1,4-dihydropyridine] | 1 | 1 | 1.5 | 3 | 4 | 7 | Burnt |  | 1 | 1 | 2 | 4 | 10 | 13 | B. | 1 | 1 | 2 | 9 | 11 | coloration, GARDNER scale ([3]; 27 min): 11; coloration, GARDNER scale ([3]; 30 min): 13; coloration, GARDNER scale ([3]; 33 min): 14; coloration, GARDNER scale ([3]; 36 min): Burnt |
